# Experimental data reported in ChEMBL document CHEMBL1147514 (Bioorg Med Chem Lett, 2004).
# pEC50, pKi: −log10 of the molar value. Values joined by “and” are separate entries in the source; they are usually repeats but may differ in a detail not shown here. Equal values may be shown once.
# Columns and labels:
# [1] = tested on: Mus musculus; assay: Antinociceptive activity was tested in the mouse tail-flick test at 15 mg/kg; type: functional
# [2] = tested on: Mus musculus; assay: Antinociceptive activity was tested in the mouse hot plate test at 15 mg/kg; type: functional
# [3] = organism: Mus musculus; assay: Blockage of Antinociceptive activity of nicotine was tested in the mouse hot plate test; type: functional
# [4] = organism: Mus musculus; assay: Blockage of Antinociceptive activity of nicotine was tested in the mouse tail flick test; type: functional
# [5] = target: T1, Neuronal acetylcholine receptor; alpha4/beta2 (Rattus norvegicus, UniProt P09483+P12390); assay: Inhibition of [3H]epibatidine binding to Nicotinic acetylcholine receptor alpha4-beta2 from rat membranes
# [6] = target: Neuronal acetylcholine receptor subunit alpha-7 (Rattus norvegicus, UniProt Q05941); assay: Inhibition of [125I]-iodo-MLA binding to Nicotinic acetylcholine receptor alpha-7 from rat brain membranes; type: cell membranes, Membrane
# [7] = organism: Mus musculus; assay: Antinociceptive activity was tested in the mouse hot plate test; type: functional
# [8] = organism: Mus musculus; assay: Antinociceptive activity was tested in the mouse tail-flick test; type: functional
# [9] = target: T1, Neuronal acetylcholine receptor; alpha4/beta2; assay: [3H](+/-)-epibatidine binding to Nicotinic acetylcholine receptor alpha4-beta2 from rat membranes
# [10] = target: Neuronal acetylcholine receptor; alpha2/beta2 (Rattus norvegicus, UniProt P12389+P12390); assay: Binding affinity towards rat alpha2-beta2 neuronal nAChR expressed in Xenopus oocytes using [3H]epibatidine as radioligand; type: cell-based, Oocyte
# [11] = target: T1, Neuronal acetylcholine receptor; alpha4/beta2; assay: Binding affinity towards rat Nicotinic acetylcholine receptor alpha4-beta2 expressed in Xenopus oocytes using [3H]epibatidine as radioligand; type: cell-based, Oocyte
# [12] = target: Neuronal acetylcholine receptor; alpha3/beta2 (Rattus norvegicus, UniProt P04757+P12390); assay: Binding affinity towards rat Nicotinic acetylcholine receptor alpha3-beta2 expressed in Xenopus oocytes using [3H]epibatidine as radioligand; type: cell-based, Oocyte
# [13] = target: T2, Neuronal acetylcholine receptor; alpha4/beta4 (Rattus norvegicus, UniProt P09483+P12392); assay: Functional potency measured as stimulation at rat Nicotinic acetylcholine receptor alpha4-beta4 expressed in Xenopus oocytes; type: cell-based, Oocyte
# [14] = target: T2, Neuronal acetylcholine receptor; alpha4/beta4; assay: Binding affinity towards rat Nicotinic acetylcholine receptor alpha4-beta4 expressed in Xenopus oocytes using [3H]epibatidine as radioligand; type: cell-based, Oocyte
# [15] = target: T3, Neuronal acetylcholine receptor; alpha3/beta4 (Rattus norvegicus, UniProt P04757+P12392); assay: Binding affinity towards rat Nicotinic acetylcholine receptor alpha3-beta4 expressed in Xenopus oocytes using [3H]epibatidine as radioligand; type: cell-based, Oocyte
# [16] = target: T3, Neuronal acetylcholine receptor; alpha3/beta4; assay: Functional potency measured as stimulation at rat Nicotinic acetylcholine receptor alpha3-beta4 expressed in Xenopus oocytes; type: cell-based, Oocyte
# [17] = target: T1, Neuronal acetylcholine receptor; alpha4/beta2; assay: Functional potency measured as stimulation at rat Nicotinic acetylcholine receptor alpha4-beta2 expressed in Xenopus oocytes; type: cell-based, Oocyte
# [18] = target: Neuronal acetylcholine receptor; alpha2/beta4 (Rattus norvegicus, UniProt P12389+P12392); assay: Binding affinity towards rat Nicotinic acetylcholine receptor alpha2-beta4 expressed in Xenopus oocytes using [3H]epibatidine as radioligand; type: cell-based, Oocyte
# [19] = target: T1, Neuronal acetylcholine receptor; alpha4/beta2; assay: inhibition of [3H]nicotine binding to alpha4-beta2 nACh receptor from rat membranes from ref 18
# [20] = target: Neuronal acetylcholine receptor; alpha4/beta4 (Rattus norvegicus) (UniProt P09483+P12392); assay: Functional potency measured as maximum stimulation at rat Nicotinic acetylcholine receptor alpha4-beta4 expressed in Xenopus oocytes; type: cell-based; settings: Oocyte
# [21] = target: Neuronal acetylcholine receptor; alpha3/beta4 (Rattus norvegicus) (UniProt P04757+P12392); assay: Functional potency measured as maximum stimulation at rat Nicotinic acetylcholine receptor alpha3-beta4 expressed in Xenopus oocytes; type: cell-based; settings: Oocyte
# [22] = target: Neuronal acetylcholine receptor; alpha4/beta2 (Rattus norvegicus) (UniProt P09483+P12390); assay: Functional potency measured as maximum stimulation at rat Nicotinic acetylcholine receptor alpha4-beta2 expressed in Xenopus oocytes; type: cell-based; settings: Oocyte
# [23] = organism: Mus musculus; assay: Antinociceptive activity was tested in the mouse tail-flick test from ref 15; type: functional
# [24] = organism: Mus musculus; assay: Spontaneous activity in mice from ref 15; type: functional
# [25] = organism: Mus musculus; assay: Drug discrimination in mice from ref 15
# [26] = organism: Mus musculus; assay: Antinociceptive activity was tested in the mouse tail-flick test from ref 17; type: functional
# [27] = target: T1, Neuronal acetylcholine receptor; alpha4/beta2; assay: Inhibition of [3H]nicotine binding to Nicotinic acetylcholine receptor alpha4-beta2 from rat membranes
# [28] = organism: Mus musculus; assay: Blockage of antinociceptive activity of nicotine was tested in the mouse hot plate test; type: functional
# [29] = tested on: Mus musculus; assay: Blockage of antinociceptive activity was tested in the mouse hot plate test at 0.01 mg/kg; type: functional
# [30] = tested on: Mus musculus; assay: Blockage of antinociceptive activity was tested in the mouse tail-flick test at 0.01 mg/kg; type: functional
# [31] = organism: Mus musculus; assay: Antinociceptive activity was tested in the mouse tail-flick test at 32.5 nM; type: functional
# [32] = organism: Mus musculus; assay: animal or person
# [33] = organism: Mus musculus; assay: animal or person; settings: Tail
# [34] = organism: Mus musculus; assay: Antinociceptive activity was tested in the mouse tail-flick test at 112 nM; type: functional
# Chain of Neuronal acetylcholine receptor subunit alpha-7 (Q05941 whole entry): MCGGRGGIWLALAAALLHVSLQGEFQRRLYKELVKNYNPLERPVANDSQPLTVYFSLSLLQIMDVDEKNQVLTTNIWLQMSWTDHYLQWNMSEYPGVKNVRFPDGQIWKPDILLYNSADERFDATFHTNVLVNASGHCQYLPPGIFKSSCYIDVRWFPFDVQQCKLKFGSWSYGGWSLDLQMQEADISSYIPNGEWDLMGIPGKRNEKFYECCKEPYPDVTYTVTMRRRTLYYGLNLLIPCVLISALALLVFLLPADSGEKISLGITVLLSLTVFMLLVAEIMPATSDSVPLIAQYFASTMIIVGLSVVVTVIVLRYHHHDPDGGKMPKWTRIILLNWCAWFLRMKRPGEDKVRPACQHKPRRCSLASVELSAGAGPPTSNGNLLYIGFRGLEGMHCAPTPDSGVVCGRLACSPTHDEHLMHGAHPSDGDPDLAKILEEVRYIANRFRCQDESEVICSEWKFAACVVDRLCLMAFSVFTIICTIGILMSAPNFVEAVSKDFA
# T1 sequence (P09483 whole entry): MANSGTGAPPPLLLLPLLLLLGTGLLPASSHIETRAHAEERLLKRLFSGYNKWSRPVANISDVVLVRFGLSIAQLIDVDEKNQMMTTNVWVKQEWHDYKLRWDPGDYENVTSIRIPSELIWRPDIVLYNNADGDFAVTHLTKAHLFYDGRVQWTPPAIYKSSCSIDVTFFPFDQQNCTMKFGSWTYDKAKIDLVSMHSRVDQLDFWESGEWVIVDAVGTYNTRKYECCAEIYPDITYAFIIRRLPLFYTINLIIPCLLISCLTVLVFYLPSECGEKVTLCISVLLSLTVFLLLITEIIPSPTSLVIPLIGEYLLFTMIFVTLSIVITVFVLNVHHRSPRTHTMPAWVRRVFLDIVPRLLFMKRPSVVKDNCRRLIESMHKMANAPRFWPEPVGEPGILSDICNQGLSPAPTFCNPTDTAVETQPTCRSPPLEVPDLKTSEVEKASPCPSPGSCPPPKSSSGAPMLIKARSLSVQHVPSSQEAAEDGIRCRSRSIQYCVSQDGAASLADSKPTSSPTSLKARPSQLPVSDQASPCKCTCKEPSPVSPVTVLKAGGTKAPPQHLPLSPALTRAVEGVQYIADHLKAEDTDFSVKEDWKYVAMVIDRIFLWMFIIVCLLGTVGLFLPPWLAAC
# T1 sequence (P12390 whole entry): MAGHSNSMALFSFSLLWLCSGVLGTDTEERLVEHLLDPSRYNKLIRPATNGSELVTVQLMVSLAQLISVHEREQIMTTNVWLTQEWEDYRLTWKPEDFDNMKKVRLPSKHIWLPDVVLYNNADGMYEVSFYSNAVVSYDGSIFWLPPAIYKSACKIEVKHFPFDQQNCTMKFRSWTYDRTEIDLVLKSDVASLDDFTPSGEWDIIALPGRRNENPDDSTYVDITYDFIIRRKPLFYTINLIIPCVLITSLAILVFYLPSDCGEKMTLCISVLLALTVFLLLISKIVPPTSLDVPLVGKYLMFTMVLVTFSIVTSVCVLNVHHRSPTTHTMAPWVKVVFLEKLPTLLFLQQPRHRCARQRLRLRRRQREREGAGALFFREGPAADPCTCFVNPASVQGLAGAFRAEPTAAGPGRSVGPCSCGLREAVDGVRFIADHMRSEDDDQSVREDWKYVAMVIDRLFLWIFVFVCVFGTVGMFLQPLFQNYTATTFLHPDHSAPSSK
# T2 sequence (P09483 whole entry): as the sequence (P09483 whole entry) above
# T2 sequence (P12392 whole entry): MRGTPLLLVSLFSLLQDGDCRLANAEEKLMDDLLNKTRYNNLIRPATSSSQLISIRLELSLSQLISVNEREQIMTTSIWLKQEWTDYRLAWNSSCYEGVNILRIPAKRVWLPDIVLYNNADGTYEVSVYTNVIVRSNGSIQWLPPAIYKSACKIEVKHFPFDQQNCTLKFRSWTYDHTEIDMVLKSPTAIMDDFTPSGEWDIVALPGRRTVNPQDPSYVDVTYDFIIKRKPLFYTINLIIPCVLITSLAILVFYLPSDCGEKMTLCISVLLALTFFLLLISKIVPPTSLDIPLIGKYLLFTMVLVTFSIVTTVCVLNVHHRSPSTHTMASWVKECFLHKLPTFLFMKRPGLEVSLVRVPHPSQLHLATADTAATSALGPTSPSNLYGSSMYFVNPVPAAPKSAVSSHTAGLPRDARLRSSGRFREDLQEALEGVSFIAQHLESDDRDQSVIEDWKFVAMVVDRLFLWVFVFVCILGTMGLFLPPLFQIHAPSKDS
# Chain of Neuronal acetylcholine receptor; alpha2/beta4 (P12389 whole entry): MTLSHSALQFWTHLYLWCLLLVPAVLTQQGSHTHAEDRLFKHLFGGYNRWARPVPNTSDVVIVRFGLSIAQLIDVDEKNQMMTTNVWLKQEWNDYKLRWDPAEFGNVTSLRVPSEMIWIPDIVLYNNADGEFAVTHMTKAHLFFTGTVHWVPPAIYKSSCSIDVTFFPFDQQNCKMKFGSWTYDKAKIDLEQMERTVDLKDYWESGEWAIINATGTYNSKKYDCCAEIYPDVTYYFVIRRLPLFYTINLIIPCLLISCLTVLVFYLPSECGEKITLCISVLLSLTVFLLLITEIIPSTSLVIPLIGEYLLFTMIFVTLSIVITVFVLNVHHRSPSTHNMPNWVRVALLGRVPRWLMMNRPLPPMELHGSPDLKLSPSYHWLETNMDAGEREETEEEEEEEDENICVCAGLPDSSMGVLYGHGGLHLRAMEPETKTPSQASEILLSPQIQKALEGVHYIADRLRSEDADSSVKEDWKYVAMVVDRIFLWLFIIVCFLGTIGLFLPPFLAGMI
# Chain of Neuronal acetylcholine receptor; alpha2/beta4 (P12392 whole entry): as the sequence (P12392 whole entry) above
# Chain of Neuronal acetylcholine receptor; alpha2/beta2 (P12389 whole entry): as the sequence (P12389 whole entry) above
# Chain of Neuronal acetylcholine receptor; alpha2/beta2 (P12390 whole entry): as the sequence (P12390 whole entry) above
# T3 sequence (P04757 whole entry): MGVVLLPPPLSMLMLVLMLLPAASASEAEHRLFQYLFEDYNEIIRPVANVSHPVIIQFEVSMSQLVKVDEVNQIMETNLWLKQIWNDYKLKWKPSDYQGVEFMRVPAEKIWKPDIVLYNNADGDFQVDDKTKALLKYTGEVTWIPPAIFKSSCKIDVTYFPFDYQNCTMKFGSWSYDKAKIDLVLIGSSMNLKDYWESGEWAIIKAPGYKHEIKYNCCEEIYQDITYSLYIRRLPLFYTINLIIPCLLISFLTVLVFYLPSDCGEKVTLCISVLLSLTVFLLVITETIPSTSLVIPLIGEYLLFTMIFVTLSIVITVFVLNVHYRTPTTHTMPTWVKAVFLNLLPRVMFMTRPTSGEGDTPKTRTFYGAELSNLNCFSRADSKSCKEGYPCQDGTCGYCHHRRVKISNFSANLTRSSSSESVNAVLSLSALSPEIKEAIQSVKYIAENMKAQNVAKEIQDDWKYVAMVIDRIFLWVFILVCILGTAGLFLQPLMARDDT
# T3 sequence (P12392 whole entry): as the sequence (P12392 whole entry) above
# Chain of Neuronal acetylcholine receptor; alpha3/beta2 (P04757 whole entry): as the sequence (P04757 whole entry) above
# Chain of Neuronal acetylcholine receptor; alpha3/beta2 (P12390 whole entry): as the sequence (P12390 whole entry) above
smiles,measurement,setting,value
Fc1ncc(C2CC3CCC2N3)cc1-c1ccccc1 (racemic),inhibition in vivo at 15 mg/kg,[1],3%
same,inhibition in vivo at 15 mg/kg,[2],4%
same,AD50,[3],1200 µg/kg
same,AD50,[4],500 µg/kg
same,pKi,[5],9.62
Clc1cc(C2CC3CCC2N3)cnc1Cl (stereo unspecified),pKi,[6],8.95
same,ED50,[7],30 µg/kg
same,ED50,[8],50 µg/kg
same,pKi,[5],10.85
CCN1C2CCC1C(c1ccc(Cl)nc1)C2 (racemic),pKi,[9],7.87
O=S(=O)(OC(F)(F)F)c1ccc(C2CC3CCC2N3)cn1 (stereo unspecified),pKi,[10],< 8.00
same,pKi,[11],~7.00
same,pKi,[12],~7.00
Fc1ccc(C2CC3CCC2N3)cn1 (stereo unspecified),pEC50,[13],6.62
same,pKi,[14],9.32
same,pKi,[15],8.68
same,pEC50,[16],6.50
same,pEC50,[17],6.60
same,pKi,[10],11.62
same,pKi,[11],11.04
same,pKi,[18],8.92
same,pKi,[12],11.42
same,pKi,[19],10.43
same,Max,[20],131%
same,Max,[21],40%
same,Max,[22],41%
CC(=O)OCC[N+](C)(C)C,Max,[20],98%
same,Max,[21],100%
same,Max,[22],95%
Ic1ccc(C2CC3CCC2N3)cn1 (stereo unspecified),pKi,[5],10.05
Clc1ncc(C2CC3CCC2N3)cc1-c1ccccc1 (stereo unspecified),ED50,[7],1000 µg/kg
same,ED50,[8],700 µg/kg
Clc1ccc([C@H]2C[C@@H]3CC[C@H]2N3)cn1 [(-)-EPIBATIDINE],ED50,[23],6.1 µg/kg
same,ED50,[24],1.8 µg/kg
same,ED50,[25],1 µg/kg
same,ED50,[7],4 µg/kg
same,ED50,[8],6 µg/kg
same,ED50,[26],9 µg/kg
CN1[C@@H]2CC[C@H]1[C@H](c1ccc(Cl)nc1)C2,pKi,[27],9.59
Fc1ncc([C@H]2C[C@@H]3CC[C@H]2N3)cc1-c1ccccc1,inhibition in vivo at 15 mg/kg,[1],5%
same,inhibition in vivo at 15 mg/kg,[2],10%
same,AD50,[3],700 µg/kg
same,AD50,[4],80 µg/kg
same,pKi,[5],9.59
CC(=O)N1C2CCC1C(c1ccc(Cl)nc1)C2 (stereo unspecified),ED50,[8],> 1000 µg/kg
Clc1ccc([C@@H]2C[C@H]3CC[C@@H]2N3)cn1 [(+)-EPIBATIDINE],ED50,[23],6.6 µg/kg
same,ED50,[24],1.2 µg/kg
same,ED50,[25],0.9 µg/kg
same,ED50,[26],7 µg/kg
O=c1ccc(C2CC3CCC2N3)c[nH]1 (stereo unspecified),pKi,[10],< 7.00
same,pKi,[11],~7.00
same,pKi,[12],< 7.00
Brc1ccc(C2CC3CCC2N3)cn1 (stereo unspecified),pEC50,[13],7.70
same,pKi,[14],10.36
same,pKi,[15],9.66
same,pEC50,[16],6.72
same,pEC50,[17],7.03
same,pKi,[10],10.89
same,pKi,[11],11.00
same,pKi,[18],10.26
same,pKi,[12],11.40
same,Max,[20],102%
same,Max,[21],82%
same,Max,[22],65%
Nc1cc(C2CC3CCC2N3)cnc1Cl (stereo unspecified),pKi,[6],7.86
same,ED50,[7],20 µg/kg
same,AD50,[28],0.03 µg/kg and 0.06 µg/kg
same,ED50,[8],20 µg/kg
same,pKi,[5],11.00
Fc1ncc([C@@H]2C[C@H]3CC[C@@H]2N3)cc1-c1ccccc1,inhibition in vivo at 15 mg/kg,[1],7%
same,inhibition in vivo at 15 mg/kg,[2],8%
same,AD50,[3],2400 µg/kg
same,AD50,[4],1000 µg/kg
same,pKi,[5],9.62
CN1[C@H]2CC[C@@H]1[C@@H](c1ccc(Cl)nc1)C2,ED50,[8],9 µg/kg
same,pKi,[27],9.96
Clc1ncc(C2CC3CCC2N3)cc1I (stereo unspecified),ED50,[7],140 µg/kg
same,Activity,[29],0%
same,Activity,[30],4%
same,ED50,[8],240 µg/kg
same,pKi,[5],11.10
CN(C)c1ccc(C2CC3CCC2N3)cn1 (stereo unspecified),Activity,[31],10%
same,pKi,[10],< 7.00
same,pKi,[11],< 7.00
same,pKi,[12],< 7.00
Clc1ncc(C2CC3CCC2N3)cc1Br (stereo unspecified),pKi,[6],6.82
same,ED50,[7],20 µg/kg
same,ED50,[8],30 µg/kg
"CCCN1C2CCC1C(c1ccc(Cl)nc1)C2 (single isomer, unassigned; (-))",pKi,[27],7.97
Clc1ccc(C2CC3CCC2N3)cn1 (stereo unspecified) [EPIBATIDINE],ED50,[32],4 µg/kg
same,ED50,[33],6 µg/kg
same,ED50,[8],> 1000 µg/kg
same,Max,[20],71%
same,Max,[21],39%
same,Max,[22],58%
Nc1ccc(C2CC3CCC2N3)cn1 (stereo unspecified),pEC50,[13],5.74
same,pKi,[14],8.37
same,pKi,[15],8.14
same,pEC50,[16],5.49
same,pEC50,[17],5.12
same,pKi,[10],10.21
same,pKi,[11],9.46
same,pKi,[18],8.46
same,pKi,[12],10.11
same,Max,[20],41%
same,Max,[21],82%
same,Activity,[34],57%
same,Max,[22],29%
c1cncc(C2CC3CCC2N3)c1 (stereo unspecified) [DESCHLOROEPIBATIDINE],pEC50,[13],6.01
same,pKi,[14],8.49
same,pKi,[15],7.96
same,pEC50,[16],6.15
same,pEC50,[17],5.44
same,pKi,[10],10.55
same,pKi,[11],11.07
same,pKi,[18],8.48
same,pKi,[12],11.51
same,Max,[20],147%
same,Max,[21],61%
same,Max,[22],112%
Cc1ccc(C2CC3CCC2N3)cn1 (stereo unspecified),pKi,[27],9.89
[N-]=[N+]=Nc1cc(C2CC3CCC2N3)cnc1Cl (stereo unspecified) [AZIDOEPIBATIDINE],pKi,[6],8.01
same,pKi,[5],10.57
Fc1cc(C2CC3CCC2N3)cnc1Cl (stereo unspecified),ED50,[7],9 µg/kg
same,ED50,[8],8 µg/kg
same,pKi,[5],10.60
